Patent US20060014231A1, “Methods and compositions to promote bone homeostasis” (priority 2004, published 2006)
Each block holds one molecule with its values, some of them ahead of it.

Key:
[1] = biological target: T1, GPR65 (Homo sapiens, UniProt Q8IYL9); assay: Alkaline phosphatase (AP) assay in MPCs infected with Ad-GPR65 and treated with ligand; format: cell-based; conditions: MPCs infected with Ad-GPR65, increasing ligand concentrations
T1 construct: amplification of the complete open reading frame from ATG start codon to the stop codon of drugable genes; expressed in transfected cells; host or cells: primary human bone-marrow MPCs, adenoviral transduction (Ad-GPR65 with Ad-hCAR)
Description: These dose-response curves are depicted in FIG. 5. A dose-response curve for AP activity is generated for MPCs infected with Ad-NR1H3 and treated with T0901317 (FIG. 5A). MPCs are seeded on day 0 at 1000 cells per well of a 384 well plate and co-infected the next day using AdC51-hCAR (MOI 250) and different MOIs of Ad5-NR1H3 (MOI 12000, 4000, 1333, 444). On day 1, 5 concentrations (1E-10M, 1E-9M, 1E-8M, 1E-7M, 1E-6M) of the compound T0901317 (Cayman Chemical, Michigan USA, Cat. No. 71810) with fixed vehicle concentration (the vehicle is DMSO at the concentration is 0.01 %) are added to the wells. After incubation for 6 days at 37° C., 10% CO2 in a humidified incubator, up-regulation of alkaline phosphatase is read: 15 μl MUP is added to each well, the plates are incubated for 15 min at 37° C. and monitored for AP activity using a fluorescence plate reader (Fluostar, BMG).
Dose-response curves for AP activity are generated in a similar way for MPCs infected with Ad-GPR65 and treated with 1-b-D-Galactosylsphingosine (FIG. 5B); for MPCs infected with Ad-AVPR2 and treated with [deamino-Cys1, D-Arg8]-Vasopressin (DDAVP) (FIG. 5C).

[2] = tested on: MPCs; assay: Up-regulation of NR5A2 and NR1H3 mRNA levels by osteogenic triggers in MPCs; format: cell-based, human; conditions: final concentration 0.1 μM, versus vehicle, several time points
Description: 100,000 MPCs are seeded in each well of a 6 well plate in 2 ml MPC medium, containing 10% FCS. The next day, after incubation at 37° C., 10% CO2 in a humidified incubator, cells are co-infected with AdC15-hCAR (final MOI of 750) and Ad-BMP2, Ad-RUNX2, Ad-MSX2, Ad-PTHR1/PTHLH or Ad-eGFP or Ad-luciferase as negative controls (final MOIs of 1250 and 2500). Alternatively, cells are treated with dexamethasone (final concentration 0.1 μM), VitD3 (final concentration 0.1 μM) or the vehicle controls (0.1% EtOH or DMSO). Cells are incubated at 37° C., 10% CO2 in a humidified incubator for a further six days unless cells are already harvested for RNA isolation. Virus is removed and replaced by 2 ml fresh OS medium (proprietary medium containing 10% FCS). Over the next 18 days, medium is refreshed 3 times per 2 weeks. Every other time, medium is refreshed half or completely. […] The fold up-regulation of NR5A2 or NR1H3 mRNA compared to negative controls (vehicle for dexamethasone or VitD3 treatment) or Ad-luciferase for Ad-infections) is calculated (FIG. 16).

[3] = biological target: T2, NR1H2 (Homo sapiens, UniProt P55055); assay: Alkaline phosphatase (AP) assay in MPCs infected with Ad-NR1H2 and treated with ligand; format: cell-based; conditions: MPCs infected with Ad-NR1H2, increasing ligand concentrations, MUP readout after 7, 10 and 13 days
T2 construct: amplification of the complete open reading frame from ATG start codon to the stop codon of drugable genes; expressed in transfected cells; host or cells: primary human bone-marrow MPCs, adenoviral transduction (Ad5-NR1H2 with Ad-hCAR)
T2 sequence (P55055 1-460): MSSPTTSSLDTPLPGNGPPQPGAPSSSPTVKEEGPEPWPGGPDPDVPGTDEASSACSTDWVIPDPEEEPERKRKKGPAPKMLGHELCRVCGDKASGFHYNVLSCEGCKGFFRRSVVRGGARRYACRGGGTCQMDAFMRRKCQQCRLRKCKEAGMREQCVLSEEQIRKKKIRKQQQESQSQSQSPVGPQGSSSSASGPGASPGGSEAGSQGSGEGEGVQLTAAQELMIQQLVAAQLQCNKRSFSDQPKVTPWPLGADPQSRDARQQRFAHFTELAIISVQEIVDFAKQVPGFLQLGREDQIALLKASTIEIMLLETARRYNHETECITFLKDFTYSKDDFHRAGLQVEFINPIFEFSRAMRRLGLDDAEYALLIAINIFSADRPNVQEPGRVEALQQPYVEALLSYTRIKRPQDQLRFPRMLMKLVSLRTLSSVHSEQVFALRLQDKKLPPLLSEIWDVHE
Description: (§1) After 6 days, medium is removed and replaced with fresh medium containing the same concentrations of the compound T0901317. Readouts of AP activity are performed at several time points after the start of the experiment, typically after 7, 10 and 13 days. Up-regulation of alkaline phosphatase activity is read as follows: medium is removed from the monolayers, 15 μl MUP is added to each well, the plates are incubated for 15 min at 37° C. and then read for AP activity using a fluorescence plate reader (Fluostar, BMG).
as §1, with “MPCs are seeded on day 0 at 1000 cells per well of a 384 well plate and co-infected the next day using AdC51-hCAR (MOI 250) and different MOIs of Ad5-NR1H2 (MOI 2000, 666). On day 1, 9 concentrations (1.52E-9M, 4.57E-9M, 1.37E-8M, 4.12E-8M, 1.23E-7M, 3.7E-7M, 1.11E-6M, 3.33E-6M, 1E-5M) of the compound GW3965 with fixed vehicle concentration (DMSO at final concentration of 0.161%) are added to the wells. After” for “After”, “GW3965.” for “T0901317.”
as §1, with “APD.” for “T0901317.”

[4] = biological target: T3, NR1H3 (Homo sapiens, UniProt Q13133); assay: Alkaline phosphatase (AP) assay in MPCs infected with Ad-NR1H3 and treated with ligand; format: cell-based; conditions: MPCs infected with Ad-NR1H3, increasing ligand concentrations, MUP fluorescence readout
T3 construct: amplification of the complete open reading frame from ATG start codon to the stop codon of drugable genes; expressed in transfected cells; host or cells: primary human bone-marrow mesenchymal progenitor cells (MPCs), adenoviral transduction (Ad5-NR1H3 with Ad-hCAR)
T3 sequence (Q13133 1-447): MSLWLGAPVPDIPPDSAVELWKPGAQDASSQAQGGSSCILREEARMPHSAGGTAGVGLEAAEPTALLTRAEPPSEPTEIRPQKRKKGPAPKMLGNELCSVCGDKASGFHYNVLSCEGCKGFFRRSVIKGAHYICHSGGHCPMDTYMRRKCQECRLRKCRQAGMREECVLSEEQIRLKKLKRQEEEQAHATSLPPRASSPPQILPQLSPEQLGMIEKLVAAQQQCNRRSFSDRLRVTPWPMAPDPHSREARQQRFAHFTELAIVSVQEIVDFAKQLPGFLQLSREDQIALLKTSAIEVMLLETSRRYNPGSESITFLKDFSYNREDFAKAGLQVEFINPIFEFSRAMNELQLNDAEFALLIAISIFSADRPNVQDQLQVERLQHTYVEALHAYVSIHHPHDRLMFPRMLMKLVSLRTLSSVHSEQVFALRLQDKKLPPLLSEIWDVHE
Description: Cellular AP activity is determined 6 days after the infection (or ligand addition—see below). The principle of the assays is depicted in FIG. 2. Mesenchymal stem cells derived from bone marrow are infected with the FLeXSelect™ cDNA library viruses in the presence of Ad5C15-hCAR or Ad5C20-hCAR virus. Six days after the start of infection or treatment with a ligand, endogenous alkaline phosphatase activity is measured following addition of 4-methylumbelliferyl […] (MUP) substrate.
The stocks of the Ad-control-viruses are generated in 96 well plates (control plate). The 2 μl volume corresponds to a theoretical MOI of 5000. Controls are: P1=Ad-BMP2; P2=Ad-H4-2; P3=Ad-H4-291; N1=Ad-LacZ; N2=Ad-empty; N3=Ad-eGFP. Up-regulation of alkaline phosphatase is read at 6 days post infection (6 dpi): 15 μl 4-Methylumbelliferyl-phosphate (MUP, Sigma) is added to each well, the plates are incubated for 15 min at 37° C. and monitored for AP activity using a fluorescence plate reader (Fluostar, BMG).
These dose-response curves are depicted in FIG. 5. […] MPCs are seeded on day 0 at 1000 cells per well of a 384 well plate and co-infected the next day using AdC51-hCAR (MOI 250) and different MOIs of Ad5-NR1H3 (MOI 12000, 4000, 1333, 444).
After 6 days, medium is removed and replaced with fresh medium containing the same concentrations of the compound GW3965. Readouts of AP activity are performed at several time points after the start of the experiment, typically after 7, 10 and 13 days.
After 6 days, medium is removed and replaced with fresh medium containing the same concentrations of the compound APD.

[5] = tested on: calvarial skull bones (hemicalvaria); assay: Calvarial skull assay (bone organ culture, weight and histological readout); parameters: species or system CD1 mice; conditions: histological readout
Description: CD1 pups are harvested around birth from CD1 female mice (received from Janvier (Le Genest St Isle, France) when they were 11 days pregnant). Pups are decapitated and the calvarial skull is dissected and split into 2 hemicalvaria. Hemicalvaria are blotted using sterile gauze, weighed and cultured in 24 well plates (MEMalpha or BGJb-Fitton-Jackson medium containing 50 μg/ml L-ascorbic acid (Sigma, A-4034), 5 mM β-glycerophosphate (Sigma, G-9891) and Penicillin-Streptomycin (Invitrogen Cat # 15140-122)). Small molecules (ligands, agonists, antagonists) are tested in at least three-fold at a minimum of 3 concentrations. Each small molecule is added to the medium on day 0 and added again when refreshing the medium (every 2-3 days). Three to 16 days after the start of the experiment, skulls are weighed again after blotting them dry using sterile gauze. The weight difference is calculated, expressed as percent weight change and the mean and standard deviations (SD) are calculated for the triplicate measurements. Data are analyzed using the Student's t-test.
The formation of new osteoid is analyzed histologically as follows: hemicalvaria are fixed in 10% buffered formalin for at least 2 days, decalcified in 10% EDTA overnight, processed through graded alcohols and embedded in paraffin wax. Three to 10 μm sections are prepared of the calvaria and stained with hematoxylin and eosin (H&E). Healthy cells, dead cells, old and new bone, and collagen are identified by their distinctive morphology and colouring observed after H&E staining. The surfaces taken by these are measured stereologically (μm^2 readout) and termed Osteoblast area, Debris area, Native and New bone area, Collagen area and Total area (sum of the previous 5 areas), respectively. In addition, the thickness (μm readout) is measured at 8 positions, evenly spaced over the section.
The histological readout of the calvarial skull assay is developed using known osteogenic agents. Hemicalvaria were treated with recombinant human parathyroid hormone (rhPTH).
T0901317 is added to the culture medium of the dissected hemicalvaria at the day of dissection at several doses (19.5, 78.1 and 313 nM), in fourfold. The concentration of the solvent (vehicle), DMSO, is fixed at a final concentration of 0.05%. The medium, containing T0901317 or vehicle control is refreshed every 2-3 days. Hemicalvaria are harvested 7 days after the initiation of the experiment and subjected to the histological analysis described above.

T1 sequence (Q8IYL9 whole entry): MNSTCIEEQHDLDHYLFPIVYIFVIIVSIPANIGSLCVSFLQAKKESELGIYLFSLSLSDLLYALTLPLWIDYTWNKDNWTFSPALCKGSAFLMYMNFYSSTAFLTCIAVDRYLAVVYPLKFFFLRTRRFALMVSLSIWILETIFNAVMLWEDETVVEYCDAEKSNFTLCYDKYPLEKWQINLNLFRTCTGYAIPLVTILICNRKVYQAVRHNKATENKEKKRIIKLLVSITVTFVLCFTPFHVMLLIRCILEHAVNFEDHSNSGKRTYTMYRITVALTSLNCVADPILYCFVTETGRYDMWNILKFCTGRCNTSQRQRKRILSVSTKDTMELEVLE

up-regulation of endogenous alkaline phosphatase (AP) activity [1]: dose-dependently increase
Molecule: CCCCCCCCCCCCCC=CC(O)C(N)CO[C@@H]1O[C@H](CO)[C@H](O)[C@H](O)[C@H]1O (stereo partly drawn) [1-b-D-Galactosylsphingosine]

Molecule: C=C1CC[C@H](O)C/C1=C/C=C1\CCC[C@]2(C)[C@@H]([C@H](C)CCCC(C)C)CC[C@@H]12 [VitD3]
NR5A2 mRNA levels [2]: up-regulated

up-regulation of alkaline phosphatase (AP) activity [3]: dose-response relation | up-regulation of endogenous alkaline phosphatase (AP) activity [4]: dose-response relation
Molecule: CC(=O)Oc1ccc2c(c1)[C@@]1(C)CCC[C@](C)(C(=O)OC(=O)[C@@]3(C)CCC[C@]4(C)c5cc(OC(C)=O)ccc5CC[C@@H]34)[C@@H]1CC2 [APD, acetyl podocarpic dimer]

up-regulation of alkaline phosphatase (AP) activity [3]: dose-response relation | up-regulation of endogenous alkaline phosphatase (AP) activity [4]: dose-response relation
Molecule: O=C(O)Cc1cccc(OCCCN(Cc2cccc(C(F)(F)F)c2Cl)CC(c2ccccc2)c2ccccc2)c1 [GW3965]

B1: PTH: recombinant human parathyroid hormone, known osteogenic agent (protein, UniProt P01270 32-115, looked up)
Parathyroid hormone: SVSEIQLMHNLGKHLNSMERVEWLRKKLQDVHNFVALGAPLAPRDAGSQRPRKKEDNVLVESHEKSLGEADKADVNVLTKAKSQ
modifications: Parathyroid hormone
notes: recombinant human parathyroid hormone, known osteogenic agent
effect on bone tissue ([5]; 10^−7 M): resorptive effect | effect on bone tissue ([5]; 10^−11 M): induces bone build-up
